{"source": "PubChem BioAssay AID1645865", "about": "(Buhrlage Lab, Dana-Farber Cancer Institute and Novartis …, 2021)", "note": "Calls of active or inactive are those of the source.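 How the source made its calls: active means maximal inhibition of the USP30 enzyme reaching 30% or more across the dose series; inactive means the rest.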"}
{"target": "Ubiquitin carboxyl-terminal hydrolase 30 (Homo sapiens) (UniProt Q70CQ3)", "sequence (Q70CQ3 whole entry, looked up)": "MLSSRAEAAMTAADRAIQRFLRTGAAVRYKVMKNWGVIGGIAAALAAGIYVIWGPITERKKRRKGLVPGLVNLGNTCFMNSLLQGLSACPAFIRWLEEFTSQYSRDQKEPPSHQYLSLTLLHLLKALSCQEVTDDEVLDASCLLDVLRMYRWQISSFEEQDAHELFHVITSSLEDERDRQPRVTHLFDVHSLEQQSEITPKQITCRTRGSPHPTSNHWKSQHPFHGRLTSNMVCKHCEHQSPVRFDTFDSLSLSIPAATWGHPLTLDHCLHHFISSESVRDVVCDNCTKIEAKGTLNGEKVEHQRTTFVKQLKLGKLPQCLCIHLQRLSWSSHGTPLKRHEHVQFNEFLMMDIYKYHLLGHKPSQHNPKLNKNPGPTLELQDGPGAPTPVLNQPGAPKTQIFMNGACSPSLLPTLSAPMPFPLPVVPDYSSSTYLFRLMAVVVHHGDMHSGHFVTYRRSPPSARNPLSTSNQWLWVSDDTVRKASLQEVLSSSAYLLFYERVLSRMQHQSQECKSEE", "test": "inhibitors of ubiquitin-specific protease 30 deubiquitylating enzyme, concentration dependence, in vitro biochemical, validation of primary hits (AID 1645865)", "settings": "purified USP30, Ub-rhodamine cleavage, fluorescence, 2 h"}
{"smiles": "O=C(NCc1ccccc1)Nc1cccc2ccccc12", "IC50": "31.9 µM"}
{"smiles": "COc1cc(Cl)ccc1Nc1ncc(C(=O)Nc2cc(OC)c(OC)c(OC)c2)c2ccccc12", "IC50": "< 0.05 µM"}
{"smiles": "CC(C)Cc1nc2oc3c(N(C)CCO)ncnc3c2c2c1CCC2", "IC50": "> 50 µM (inactive)"}
{"smiles": "Cc1c(C(=O)c2ccccc2)c2ccccn2c1CCc1ccccn1", "IC50": "> 50 µM (inactive)"}
{"smiles": "O=C1c2c(O)c(Cl)cc3c2[C@@]2(Oc4cc(Cl)c(O)c5c4[C@]3(O2)[C@@H]2O[C@@H]2C5=O)[C@@H]2O[C@H]12", "IC50": "1.1 µM"}
{"smiles": "Cn1ccc2c(cc(C(=O)NCCC3=CCCCC3)n2C)c1=O", "IC50": "> 50 µM (inactive)"}
{"smiles": "COc1ccc(-n2c(SCC(=O)c3ccc(F)cc3)nnc2-c2cccnc2)cc1", "IC50": "21.9 µM"}
{"smiles": "COc1ccc(-c2nc(Cn3nnc(C(=O)Nc4ccc(C)cc4C)c3N)c(C)o2)cc1", "IC50": "> 5 µM (inactive)"}
{"smiles": "COc1ccc(CCNC(=O)CCCCn2c(=O)c3ccccc3n(Cc3cccc(Cl)c3)c2=O)cc1OC", "IC50": "24.6 µM"}
{"smiles": "Cc1sc2ncn3c(=O)n(CC(=O)Nc4ccc(F)c(Cl)c4)nc3c2c1C", "IC50": "2.07 µM"}
{"smiles": "COc1ccc(NC(=O)c2sc(N3CCOCC3)nc2-c2ccccc2)c(OC)c1", "IC50": "18.9 µM"}
{"smiles": "COc1cccc(-c2cc(=O)[nH]c(Nc3nc(C)c4ccccc4n3)n2)c1", "IC50": "35.4 µM"}
{"smiles": "COc1cc(C2SCC(=O)Nc3c2c(-c2ccccc2)nn3-c2ccccc2)cc(OC)c1OC", "note": "(stereo not drawn)", "IC50": "> 50 µM (inactive)"}
{"smiles": "O=c1ncn(Cc2ccc3c(c2)OCO3)cc1-c1ncc(C(F)(F)F)cc1Cl", "IC50": "48.2 µM"}
{"smiles": "COc1ccc2c(c1)c(N1CCCC1=O)c(C(=O)NCc1cccc(OC)c1OC)n2C", "IC50": "> 50 µM (inactive)"}
{"smiles": "C[C@@H]1O[C@@H](O[C@H]2[C@H](O[C@H]3[C@H](O[C@H]4CC[C@@]5(C)[C@@H](CC[C@]6(C)[C@@H]5CC=C5[C@@H]7CC(C)(C)CC(=O)[C@]7(C)CC[C@]56C)[C@@]4(C)CO)O[C@H](C(=O)O)[C@@H](O)[C@@H]3O)OC[C@@H](O)[C@@H]2O)[C@H](O)[C@H](O)[C@H]1O", "IC50": "> 50 µM (inactive)"}
{"smiles": "COc1cccc(NC(=O)CSc2nnc(-c3cc4cccc(OC)c4o3)n2C)c1", "IC50": "5.18 µM"}
{"smiles": "Cn1c2ccccc2c2ncn(Cc3ccc(F)cc3)c(=O)c21", "IC50": "27.3 µM"}
{"smiles": "O=C(Nc1ccccc1)c1nc(-c2cn(Cc3ccc(F)cc3)nn2)no1", "IC50": "28.6 µM"}
{"smiles": "Cc1ccccc1NC(=O)c1ccn(COc2ccc(Cl)cc2)n1", "IC50": "> 50 µM (inactive)"}
{"smiles": "O=S(=O)(c1cccc(F)c1)N1CCN(c2nnnn2-c2ccccc2)CC1", "IC50": "31.4 µM"}
{"smiles": "Cc1ccc(C2c3c(-c4ccccc4O)n[nH]c3C(=O)N2Cc2ccco2)cc1", "note": "(stereo not drawn)", "IC50": "21.3 µM"}
{"smiles": "COc1ccc(CN=C2NS(=O)(=O)C(c3ccc(F)cc3)=C2C)cc1OC", "IC50": "25.8 µM"}
{"smiles": "COc1ccc(NC(=O)c2ccccc2OCC(=O)Nc2ccccc2C(F)(F)F)c(C)c1", "IC50": "28.8 µM"}
{"smiles": "COc1ccccc1CNC(=O)c1ccc(CSc2nc3ccncc3n2Cc2ccccc2)cc1", "IC50": "44.9 µM"}
{"smiles": "O=C(CN1C(=O)c2ccccc2Sc2ccc(C(=O)N3CCCC3)cc21)Nc1ccccc1Cl", "IC50": "> 50 µM (inactive)"}
{"smiles": "CN(C)c1cc(-n2cnc(C(=O)NCc3ccccc3Cl)c2)ncn1", "IC50": "37.8 µM"}
{"smiles": "CCOc1ccccc1-c1nc(-c2nnn(Cc3ccccc3)c2C)no1", "IC50": "> 50 µM (inactive)"}
{"smiles": "O=C(Cn1cnc(-c2noc(-c3ccncc3)n2)c1)N1CCN(c2ccccc2F)CC1", "IC50": "> 50 µM (inactive)"}
{"smiles": "CCN(CC)c1cc(C)c2cc(NC(=O)c3ccncc3)ccc2n1", "IC50": "> 50 µM (inactive)"}
{"smiles": "O=C(Cc1cccs1)Nc1cc(F)c2nc(N3CCOCC3)ccc2c1", "IC50": "> 50 µM (inactive)"}
{"smiles": "Cc1c(OCC(=O)NCC(=O)N2CCC3(O)CCCCC3C2)ccc2c3c(c(=O)oc12)CCCC3", "note": "(stereo not drawn)", "IC50": "23.7 µM"}
{"smiles": "CC(C)NS(=O)(=O)c1cccc2c(NC(=O)C(Cc3ccccc3)NC(=O)c3ccccc3)cccc12", "note": "(stereo not drawn)", "IC50": "< 0.05 µM"}
{"smiles": "COc1ccc(C(=O)NCCc2nnc3ccc(SCC(=O)NCc4ccc(F)cc4)nn23)cc1", "IC50": "15.8 µM"}
{"smiles": "Cc1ccc2c(c1C)NC(=O)[C@]21[C@@H]2C(=O)N(c3cccc(Cl)c3)C(=O)[C@@H]2[C@@H]2CCCN21", "IC50": "> 50 µM (inactive)"}
{"smiles": "Cc1c(C)c2ccc(OCC(=O)NCc3ccncc3)c(C)c2oc1=O", "IC50": "31.1 µM"}
{"smiles": "COC(=O)c1sccc1NC(=O)COc1ccsc1C(=O)OC", "IC50": "27.9 µM"}
{"smiles": "O=C(/C=C/c1cnc2ccccc2c1)NCc1ccccc1", "IC50": "35.1 µM"}
{"smiles": "Cc1cc(CSc2ncccc2C(=O)Nc2ccnn2Cc2cccnc2)no1", "IC50": "> 50 µM (inactive)"}
{"smiles": "NS(=O)(=O)c1cccc(NS(=O)(=O)c2ccc(/C=C/C(=O)OCC(=O)c3ccc(Br)cc3)cc2)c1", "IC50": "> 50 µM (inactive)"}
{"smiles": "Cc1nc(-c2noc(-c3ccncc3)n2)cn1CC(=O)N1CCN(c2ccc(F)cc2)CC1", "IC50": "39.1 µM"}
{"smiles": "Cc1ccc2c(c1)[C@]1(C(=O)N2)[C@@H](C(=O)c2ccccc2)[C@]2(C(=O)Nc3ccccc32)[C@@H]2CCCN21", "IC50": "35.1 µM"}
{"smiles": "Fc1ccc(Nc2nc(Nc3cccc(F)c3)nc3nccnc23)cc1", "IC50": "> 50 µM (inactive)"}
{"smiles": "Cc1ccc2c(c1)c(=O)c(C(=O)c1ccccc1)cn2CC(=O)Nc1ccc2c(c1)OCCO2", "IC50": "2.6 µM"}
{"smiles": "Cc1cc2nc(Oc3cccc(Cl)c3)c3ccccc3n2n1", "IC50": "2.04 µM"}
{"smiles": "CSc1nc(Cc2ccc(Cl)cc2)nc2ccccc12", "IC50": "> 50 µM (inactive)"}
{"smiles": "COc1cccc(Cn2nc3n(CC(C)C)c(=O)c4ccc(C(=O)NCC(C)C)cc4n3c2=O)c1", "IC50": "2.37 µM"}
{"smiles": "O=C(CCCCn1c(=O)c2ccccc2n(Cc2ccccc2F)c1=O)NCCc1ccccc1", "IC50": "8.13 µM"}
